Here are results for nine compounds from patent US20240174644A1, “QUINOXALINE UREA INHIBITORS OF IKK-BETA AND NF-KB” (BOARD OF REGENTS OF THE UNIVERSITY OF NEBRASKA, priority 2021, published 2024).

One assay deals with MM1S cells. The experiment in a line: Growth inhibition assay in MM1S cells (Presto blue). The conditions noted are these: Homo sapiens, MM1.S, 120 h, MM1S cells (multiple myeloma model), 5-day incubation, triplicate. It is filed as cell-based. The protocol:
MM1S cells were seeded (20K cells/well) and increasing concentrations of the inhibitors were added to these cells in triplicate. The plates were incubated for 5 -days after which Presto blue (544/590 ex/em wavelengths) was added and plates read after additional 15 min incubation at 37° C. The IC50 values were derived by curve fitting the data.

Another assay concerns caspase 3/7. Put plainly: Caspase 3/7 activation assay in MM1S cells (Apo-One homogeneous caspase 3/7 assay). The conditions noted are these: inhibitor 10 μM, 24 h, fold change relative to the DMSO control. It is filed as cell-based. The protocol:
MM1 S cells were seeded (25K cells/well) and inhibitors (10 μM) were added to these cells in triplicate. The plates were incubated for 24 h. Under multiplexing conditions, the cell viability using Alamar Blue assay and caspase activity using Apo-One homogeneous caspase 3/7 assay was determined. Data represented as fold change relative to the DMSO control.

SMILES strings stand for the structures. Some results are limits rather than exact numbers.

The compound `Cn1cc(-c2cnc3ccc(NC(=O)Nc4ccc(F)c(C(F)(F)F)c4F)cc3n2)cn1` [Compound 9] yielded an IC50 in the assay with MM1S cells of 0.75 ± 0.01 µM. Further, the “Caspase 3/7 activation” value in the assay on caspase 3/7 turned out to be 9.79 ± 2.47 fold change.

For the compound `Cn1cc(-c2ccc3ccc(NC(=O)Nc4ccc(F)c(Br)c4)cc3n2)cn1` [Compound 5], the midpoint of inhibition in the assay with MM1S cells, the IC50, lay at 5.56 ± 0.66 µM. In the assay on MM1S cells, `Cn1cc(-c2cnc3ccc(NC(=O)Nc4ccc(F)c(Br)c4)cc3n2)cn1` [Compound 1] had a half-maximal inhibitory concentration (IC50) of 5.43 ± 0.16 µM. `Cn1ccc(-c2cnc3ccc(NC(=O)Nc4ccc(F)c(Br)c4)cc3n2)c1` [Compound 7, 1-(3-Bromo-4-fluorophenyl)-3-(3-(1-methyl-1 H-pyrrol-3-yl)quinoxalin-6-yl)urea] came in with a half-maximal inhibitory concentration (IC50) in the assay with MM1S cells of 2.85 ± 0.09 µM. Besides, in the assay on caspase 3/7, the “Caspase 3/7 activation” value stood at 1.51 ± 0.01 fold change. With `Cn1cc(-c2cnc3ccc(NC(=O)Nc4ccc(F)c(Br)c4)cc3c2)cn1` [Compound 6, 1-(3-Bromo-4-fluorophenyl)-3-(3-(1-methyl-1H-pyrazol-4-yl)quinolin-6-yl)urea], in the assay on MM1S cells, the IC50 was 10.6 ± 0.4 µM. Moreover, the “Caspase 3/7 activation” value in the assay on caspase 3/7 amounted to 1.36 ± 0.04 fold change. As to `Cn1cc(-c2cnc3ccc(NC(=O)Cc4ccc(F)c(Br)c4)cc3n2)cn1` [Compound 4], the IC50 with MM1S cells amounted to 4.67 ± 0.09 µM. In turn, `Cn1cc(-c2cnc3ccc(NC(=O)Nc4cccc(Br)c4)cc3n2)cn1` [Compound 2] had an IC50 in the assay on MM1S cells of 2.83 ± 0.09 µM. The “Caspase 3/7 activation” value with caspase 3/7 was determined as 1.06 ± 0.03 fold change. Compound `Cn1cc(-c2cnc3ccc(NC(=O)Nc4ccc(F)c(C(F)(F)F)c4)cc3n2)cn1` [Compound 8] displayed a concentration for half-maximal inhibition (IC50) in the assay with MM1S cells of 5.38 ± 0.13 µM. The “Caspase 3/7 activation” value in the assay with caspase 3/7 amounted to 1.96 ± 0.05 fold change.

Compound `Cn1cc(-c2cnc3ccc(NC(=O)Nc4ccc(F)cc4)cc3n2)cn1` [Compound 3, 1-(4-fluorophenyl)-3-(3-(1-methyl-1H-pyrazol-4-yl)quinoxalin-6-yl)urea] displayed a half-maximal inhibitory concentration (IC50) in the assay with MM1S cells above 20 µM. Also, in the assay on caspase 3/7, the “Caspase 3/7 activation” value is recorded as 1.03 ± 0.06 fold change.
